Several values for one entry are separate records, joined by “and”; a condition that tells them apart may be missing. Equal values may be shown once. Entries after “also recorded” stand apart in the source; their conditions may differ. Read-outs that look alike come from different tables or passages of the source.
How the values were obtained:
[1] = tested on: FFX rats; experiment: Hippocampal LTP in vivo in FFX rats; set-up: species or system rat; conditions: 0.3 mg/kg
Description: AZD0328 reversed a deficit in hippocampal long-term potentiation (LTP) in FFX Sprague Dawley rats (Table 2). […] 0.3 mg/kg of AZD0328 was ineffective in this test.

[2] = tested on: isolated perfused female rabbit hearts; experiment: Isolated perfused rabbit heart (Hondeghem model)
Excerpt: Proarrhythmic properties of AZD0328 were investigated in 6 isolated perfused female rabbit hearts according to the Hondeghem model (Table 3). Effects of AZD0328 on action potential duration at 60% of repolarisation (APD60), and Triangulation, Reverse-use dependence and Instability (T, R, I) of the action potential, were studied. Also, a “flag” was raised when T, R or I reached a critical threshold level, below which is considered safe, and the total number of flags was presented as increase in percentage flags. The % flags parameter is considered to be the most sensitive measure of proarrhythmia in this in vitro model, with a threshold for cause of concern at 2.5%. The % flags increased concentration-dependently above threshold at 9 and 30 μM. Although TRIad elements were present, there were no overt signs of proarrhythmia such as early-afterdepolarisations (EADs), Torsade de Pointes, or ventricular fibrillation. In this study the no adverse effect level (NOAEL) of AZD0328 for proarrhythmic signals was 3 μm.

[3] = PK/TK single dose studies; assay type: in vivo; conditions: rhesus monkey, plasma
Description: Pharmacokinetic studies in rats and monkeys were used to estimate the plasma concentrations associated with doses at which AZD0328 improved cognitive performance in these species. For example, in rhesus monkeys, two studies were conducted to determine the pharmacokinetic profile of AZD0328 after administration of 0.048 and 1.7 mg per kg AZD0328. […] We thus estimated the peak plasma concentrations in monkeys that received AZD0328 at 0.00048-0.016 mg per kg to be 0.6-18 nM. Similar studies and calculations in rats, when extended to mice, led us to estimate plasma concentrations at 0.001-0.1 mg per kg body weight to be 0.29-100 nM in these species.
This section provides a summary of the pharmacokinetic and metabolism properties of AZD0328 derived from in vivo studies. […] The derived PK/TK parameters from these studies are presented in Table 4 for single dose studies (DMR4, 0619LR, 20030191PCR, DM016, DMB10, DMW12, 50190, 0190DD and 03.330/1), and are presented in Table 5 multiple dose PK/TK studies (DMR4, 0612AR, DMB15, 50190, 0190DD and 0295AD).

[4] = tested on: Mouse lymphoma test; experiment: Mouse lymphoma test; assay type: cell-based
Excerpt: The genotoxic potential of AZD0328 has been evaluated in the Ames test and in the Mouse lymphoma test. AZD0328 was not mutagenic in either of these tests.

[5] = tested on: ferrets; experiment: Emetic potential; assay type: in vivo; conditions: ferret
Description: The emetic potential of AZD0328 was investigated in ferrets (n=6-8/dose) following a single oral dose of vehicle or AZD0328 (Table 3). Videotape recordings were used for observation of the animals up to 4 h after dose for quantitation and timing of emetic behaviours, characterised as retches (abdominal contractions), vomits and wet-dog shakes.

[6] = target: Pgp transporter (Homo sapiens, UniProt P08183); experiment: Digoxin transport, cell-based assay; assay type: in vitro ADME
Excerpt: The 50% bioavailability of AZD0328 in human was conservatively selected based on the observations from rat, dog and monkey.

[7] = tested on: dog Purkinje fibre; experiment: Dog isolated cardiac Purkinje fibres, action potentials; conditions: stimulation 0.5 and 1 Hz
Description: Effects of AZD0328 on cardiac action potentials were assessed in 4 dog Purkinje fibre preparations. (Table 3). The following action potential parameters were measured at the stimulation frequencies 0.5 and 1 Hz: action potential duration at 50% (APD50), 70% (APD70) and 90% (APD90) of repolarisation; the maximum velocity of the action potential upstroke (Vmax); the action potential amplitude (APA) and the resting membrane potential (RMP). At both stimulation frequencies, AZD0328 caused a concentration-dependent prolongation of APD50, APD70 and APD90, with significant effects at 5.6 μM and above. There was also an indication of proarrhythmic potential of the compound. A 10% increase in APD90 in the isolated dog Purkinje fibre is seen at concentrations between 5.6 and 16.8 μm.

[8] = tested on: rats; experiment: Intestinal motility (charcoal meal test, glass bead test); assay type: in vivo; conditions: rat, oral
Description: Effects of AZD0328 on small intestinal and colorectal motility were investigated in rats using the charcoal meal test and the glass bead test, respectively (Table 3). In the first part, evaluating intestinal transit, a test meal containing charcoal as a non-absorbable marker was administered to rats. In the second part, effects of oral administration of AZD0328 on colo-rectal transit time was evaluated.

[9] = tested on: rats; experiment: Nicotine drug discrimination; conditions: Wistar, rat, in vivo, sc
Description: AZD0328 was tested for its potential to produce nicotine-like stimulus effects after subcutaneous administration in a drug-discrimination procedure (Table 3).

[10] = [14C]-AZD0328 QWBA / mass balance; assay type: in vivo, rat
Description: In the mass balance study conducted in fed rats, a Tmax of 0.5 h to 1 h was observed following single and multiple oral doses (solution). The bioavailability of AZD0328 (total radioactivity) in this study was >90%. […] Generally speaking, the elimination was complete within the 24-hour interval at the dose levels tested.
AZD0328 is a low protein binding molecule across species including human (<15%) across the concentration range 21.6 to 21,630 ng/mL (0.1 to 100 μM). In most species, the binding was concentration and gender independent. […] [^14C]-AZD0328-derived radioactivity was rapidly distributed to the organs and tissues with high levels of radioactivity associated with the contents of the GI tract and the major excretion organs, including kidney and liver. The radioactivity declined rapidly and by 168 h postdose radioactivity levels were not detectable in most tissues, with the exception of a few ocular tissues and nasal turbinates. […] Notable association of [^14C]-AZD0328-related radioactivity with the melanin-containing tissues was observed, with measurable radioactivity still present in the ocular tissue at 216 h postdate. [^14C]-AZD0328-derived radioactivity crossed the placenta.
Pharmacokinetics and mass balance of [^14C]-AZD0328 were investigated in rats. The excretion of [^14C]-AZD0328-derived radioactivity in rats was mainly through the kidney. Over the course of the study, radioactivity recovered in urine and feces accounted for approximately 85% and 8%, respectively.

Chain of Pgp transporter (P08183 whole entry): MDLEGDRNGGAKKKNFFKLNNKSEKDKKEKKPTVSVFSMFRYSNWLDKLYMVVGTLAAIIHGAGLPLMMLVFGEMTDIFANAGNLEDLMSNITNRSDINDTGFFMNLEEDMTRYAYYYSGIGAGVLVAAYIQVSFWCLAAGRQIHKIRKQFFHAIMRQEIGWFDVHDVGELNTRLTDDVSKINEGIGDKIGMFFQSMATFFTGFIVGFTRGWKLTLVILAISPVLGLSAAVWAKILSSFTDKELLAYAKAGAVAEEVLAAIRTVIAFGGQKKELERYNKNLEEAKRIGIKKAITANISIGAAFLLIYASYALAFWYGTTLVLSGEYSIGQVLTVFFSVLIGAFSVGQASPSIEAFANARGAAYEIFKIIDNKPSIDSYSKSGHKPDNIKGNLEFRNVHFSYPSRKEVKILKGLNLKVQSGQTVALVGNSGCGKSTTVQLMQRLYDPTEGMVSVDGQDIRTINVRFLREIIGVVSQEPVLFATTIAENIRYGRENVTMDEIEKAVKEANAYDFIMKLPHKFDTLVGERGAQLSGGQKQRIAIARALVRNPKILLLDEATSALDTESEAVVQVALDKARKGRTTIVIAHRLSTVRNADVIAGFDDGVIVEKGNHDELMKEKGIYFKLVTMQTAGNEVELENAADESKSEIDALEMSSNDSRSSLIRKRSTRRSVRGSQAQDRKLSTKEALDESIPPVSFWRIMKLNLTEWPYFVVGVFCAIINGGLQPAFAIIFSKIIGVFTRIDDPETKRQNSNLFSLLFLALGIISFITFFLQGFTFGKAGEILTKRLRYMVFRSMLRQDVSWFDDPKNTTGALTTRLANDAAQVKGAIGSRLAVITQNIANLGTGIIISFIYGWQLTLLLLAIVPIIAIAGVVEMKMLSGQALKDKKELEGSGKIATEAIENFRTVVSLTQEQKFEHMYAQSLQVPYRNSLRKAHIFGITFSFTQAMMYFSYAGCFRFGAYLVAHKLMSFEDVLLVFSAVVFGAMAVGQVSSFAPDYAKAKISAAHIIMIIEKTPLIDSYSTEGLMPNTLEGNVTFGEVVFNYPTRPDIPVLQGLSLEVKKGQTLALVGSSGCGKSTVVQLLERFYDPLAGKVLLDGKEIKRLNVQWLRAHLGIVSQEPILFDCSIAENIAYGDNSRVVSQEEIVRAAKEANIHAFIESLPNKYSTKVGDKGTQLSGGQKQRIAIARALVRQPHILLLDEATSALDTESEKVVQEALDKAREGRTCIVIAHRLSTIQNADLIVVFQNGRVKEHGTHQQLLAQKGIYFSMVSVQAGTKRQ

c1cnc2c(c1)C[C@@]1(CN3CCC1CC3)O2 [AZD0328, (R)-Spiro[1-azabicyclo[2.2.2]octane-3,2′(3′H)-furo[2,3-b]pyridine]]
Hippocampal LTP [1]: ineffective | NOAEL in the proarrhythmic isolated heart assay [2]: 0.9 µM | NOAEL for proarrhythmic signals ([2]; isolated perfused rabbit heart): 3 μm | AUC ([3]; male, im, 0.048 mg/kg, read-out: AUC (converted)): 14.9 ng·h/mL and 0.0684 µM·h | AUC ([3]; intramuscular, 0.016 mg/kg, rhesus monkeys, read-out: AUC at NOAEL for behavioral side effects): 0.028 µM·h | Mutagenicity / genotoxicity [4]: not genotoxic; also recorded: not mutagenic | Emetic responses ([5]; oral gavage 5.6, 16.9 or 56.2 mg/kg): retching, vomiting and wet-dog shakes at all doses | Dose with statistically significant retches vs vehicle ([5]; single oral dose): 5.6 mg/kg | Pgp mediated digoxin transport [6]: did not significantly inhibit | Concentration with significant prolongation of APD50, APD70 and APD90 [7]: ≥ 5.6 µM | Dose with inhibition of small- and large-intestinal motility [8]: ≥ 130 µmol/kg | Dose up to which nicotine-like stimulus properties were lacking [9]: properties at doses up to 5.4 mg/kg | Absorbed (urinary radioactivity and AUC, oral versus iv) ([10]; female rat): 95% | Absorbed (urinary radioactivity and AUC, oral versus iv) ([10]; male rat): 97% | Radioactivity recovered in feces ([10]; rat): ~8% | Radioactivity recovered in urine ([10]; rat): approximately 85%

Source: patent US20100168146A1, “Composition Comprising (R)-Spiro[L-Azabicyclo[2.2.2]Octane-3,2'(3'H)-Furo[2,3-B]Pyridine (AZD0328) and its Use in the Treatment of Alzheimer's Disease, ADHD or Cognitive Dysfunction” (priority 2008, published 2010)
